Measured values: patent publication US9284321B2, “Piperazino[1,2-a]indol-1-ones and [1,4]diazepino[1,2-a]indol-1-one” (Hoffmann-La Roche Inc., priority 2012, dated 2016)

Legend:
[1] = tested on: human embryonic stem cell derived neural stem cells (NSCs); experiment: Neural Stem Cell Proliferation Assay (neurogenesis assay, ATP levels by CellTiterGlo); type: cell-based; details: 96 h, compound concentration at which 150% activity of control (100%) is reached, NSC proliferation by ATP level after 4 days incubation, dose response 8 μM to 8 nM
Description: Neurogenic properties of small molecules are determined based on the proliferation of human embryonic stem cell derived neural stem cells (NSCs) which were derived via a dual smad inhibition as previously described (Chambers, S. M., et al., Highly efficient neural conversion of human ES and iPS cells by dual inhibition of SMAD signaling, Nature biotechnology, 2009. 27(3): p. 275-80.)
Compounds respond is measured by the increase in cells based on ATP levels
(Promega:CellTiterGlo®) after an incubation period of 4 days.
NSCs are thawed and expanded over 3 passages. On the 14th day, NSCs are seeded in Polyornithin/Laminin coated 384 well plates at a cell density of 21′000 cells/cm^2 in a media volume of 38 μl.
4 hours after cell seeding, compound solutions are added at a volume of 2 μl. Stock solutions of the compounds (water, 5% DMSO) are diluted to obtain a dose response (11 points, dilution factor is 2), ranging from 8 μM to 8 nM. Controls are run to consistently determine the neurogenic properties of the cells:
Negative (neutral) control is cell culture Media (final DMSO concentration: 0.25%).
• 1. cell culture Media+100 ng/ml FGF2 (final DMSO concentration: 0.1%) • 2. cell culture Media+20 ng/ml EGF (final DMSO concentration: 0.1%) • 3. cell culture Media+100 ng/ml Wnt3a (final DMSO concentration: 0.1%)
After 4 days incubation at 37° C., 5% CO2, the amount of ATP per well is quantified. The ATP concentration is proportional to the cell number. ATP is quantified by using the Promega CellTiterGlo® kit. The CellTiterGlo® reagents contain a cell lysis buffer, a thermo stable luciferase (UltraGlo™ recombinant luciferase), magnesium and luciferin. Luciferin reacts with ATP producing oxyluciferin, AMP and light. The luminescence signal is proportional to the ATP content.
The value of negative (neutral) control is determined for each assay plate by taking the average of 16 negative control wells. The neurogenic compound response is calculated for each compound as (compound/Negative Control)*100.
The values of EC150 from the dose response curve are determined for each test compound. The EC150 is the compound concentration at which 150% activity of control (100%) is reached.

Row | melting point [°C] | SMILES | EC (150% of control) [1] [µM]
1 | 232.5 | CC1CCNC(=O)c2cc3cc(F)cc(-c4ccccc4)c3n21 (racemic) [Example 26, (RS)-9-Fluoro-5-methyl-7-phenyl-2,3,4,5-tetrahydro-[1,4]diazepino[1,2-a]indol-1-one] | 0.24
2 | 235.5 | CC1CCNC(=O)c2cc3cc(F)cc(-c4ccc(F)cc4)c3n21 (racemic) [Example 27, (RS)-9-Fluoro-7-(4-fluoro-phenyl)-5-methyl-2,3,4,5-tetrahydro-[1,4]diazepino[1,2-a]indol-1-one] | 0.18
3 | 239 | C[C@@H]1CNC(=O)c2cc3cccc(-c4ccccc4)c3n21 [Example 1, (R)-4-Methyl-6-phenyl-3,4-dihydro-2H-pyrazino[1,2-a]indol-1-one] | 3.97
4 | 247 | COc1ccc(-c2cccc3cc4n(c23)[C@H](C)CNC4=O)cc1 [Example 2, (R)-6-(4-Methoxy-phenyl)-4-methyl-3,4-dihydro-2H-pyrazino[1,2-a]indol-1-one] | 0.85
5 | 264 | C[C@@H]1CNC(=O)c2cc3cccc(-c4ccncc4)c3n21 [Example 3, (R)-4-Methyl-6-pyridin-4-yl-3,4-dihydro-2H-pyrazino[1,2-a]indol-1-one] | 2.31
6 | 243.5 | C[C@@H]1CNC(=O)c2cc3cc(F)cc(-c4ccccc4)c3n21 [Example 4, (R)-8-Fluoro-4-methyl-6-phenyl-3,4-dihydro-2H-pyrazino[1,2-a]indol-1-one] | 0.37
7 | 228.5 | COc1ccc(-c2cc(F)cc3cc4n(c23)[C@H](C)CNC4=O)cc1 [Example 5, (R)-8-Fluoro-6-(4-methoxy-phenyl)-4-methyl-3,4-dihydro-2H-pyrazino[1,2-a]indol-1-one] | 0.034
8 | 276 | C[C@@H]1CNC(=O)c2cc3cc(F)cc(-c4ccc(F)cc4)c3n21 [Example 6, (R)-8-Fluoro-6-(4-fluoro-phenyl)-4-methyl-3,4-dihydro-2H-pyrazino[1,2-a]indol-1-one] | 0.22
9 | 294.5 | C[C@@H]1CNC(=O)c2cc3cc(F)cc(-c4ccncc4)c3n21 [Example 7, (R)-8-Fluoro-4-methyl-6-pyridin-4-yl-3,4-dihydro-2H-pyrazino[1,2-a]indol-1-one] | 0.4
10 | 294.5 | Cc1ccc(-c2cc(F)cc3cc4n(c23)[C@H](C)CNC4=O)cc1 [Example 8, (R)-8-Fluoro-4-methyl-6-p-tolyl-3,4-dihydro-2H-pyrazino[1,2-a]indol-1-one] | 0.048
11 | 229.5 | C[C@@H]1CNC(=O)c2cc3cc(F)cc(-c4cc(F)cc(F)c4)c3n21 [Example 9, (R)-6-(3,5-Difluoro-phenyl)-8-fluoro-4-methyl-3,4-dihydro-2H-pyrazino[1,2-a]indol-1-one] | 0.37
12 | 267 | C[C@@H]1CNC(=O)c2cc3cc(F)cc(-c4ccc(F)c(F)c4)c3n21 [Example 10, (R)-6-(3,4-Difluoro-phenyl)-8-fluoro-4-methyl-3,4-dihydro-2H-pyrazino[1,2-a]indol-1-one] | 0.22
13 | 282.5 | C[C@@H]1CNC(=O)c2cc3cc(F)cc(-c4ccc(Cl)cc4)c3n21 [Example 11, (R)-6-(4-Chloro-phenyl)-8-fluoro-4-methyl-3,4-dihydro-2H-pyrazino[1,2-a]indol-1-one] | 0.1
14 | 236.5 | O=C1NCCn2c1cc1cc(F)cc(-c3ccccc3)c12 [Example 12, 8-Fluoro-6-phenyl-3,4-dihydro-2H-pyrazino[1,2-a]indol-1-one] | 0.037
15 | 307 | C[C@@H]1CNC(=O)c2cc3cc(F)cc(-c4ccc(C(F)(F)F)cc4)c3n21 [Example 13, (R)-8-Fluoro-4-methyl-6-(4-trifluoromethyl-phenyl)-3,4-dihydro-2H-pyrazino[1,2-a]indol-1-one] | 0.16
16 | 232 | C[C@@H]1CNC(=O)c2cc3cc(F)cc(-c4cccc(F)c4)c3n21 [Example 14, (R)-8-Fluoro-6-(3-fluoro-phenyl)-4-methyl-3,4-dihydro-2H-pyrazino[1,2-a]indol-1-one] | 0.34

Row | melting point [°C] | SMILES | EC (150% of control) [1] [µM]
17 | 277 | O=C1NCCCn2c1cc1cc(F)cc(-c3ccccc3)c12 [Example 15, 9-Fluoro-7-phenyl-2,3,4,5-tetrahydro-[1,4]diazepino[1,2-a]indol-1-one] | 0.084
18 | 225.5 | COc1ccc(-c2cc(F)cc3cc4n(c23)CCCNC4=O)cc1 [Example 16, 9-Fluoro-7-(4-methoxy-phenyl)-2,3,4,5-tetrahydro-[1,4]diazepino[1,2-a]indol-1-one] | 0.009
19 | 239.5 | O=C1NCCCn2c1cc1cc(F)cc(-c3ccc(F)cc3)c12 [Example 17, 9-Fluoro-7-(4-fluoro-phenyl)-2,3,4,5-tetrahydro-[1,4]diazepino[1,2-a]indol-1-one] | 0.05
20 | 304 | O=C1NCCn2c1cc1cc(F)cc(-c3ccc(F)cc3)c12 [Example 18, 8-Fluoro-6-(4-fluoro-phenyl)-3,4-dihydro-2H-pyrazino[1,2-a]indol-1-one] | 0.026
21 |  | Cc1c2n(c3c(-c4ccc(Cl)nc4)cc(F)cc13)CCNC2=O [Example 144, 6-(6-Chloro-pyridin-3-yl)-8-fluoro-10-methyl-3,4-dihydro-2H-pyrazino[1,2-a]indol-1-one] | 0.081
22 | 224.5 | N#Cc1cc(-c2ccc(Cl)c(C(F)(F)F)c2)c2c(c1)cc1n2CCCNC1=O [Example 254, 7-[4-Chloro-3-(trifluoromethyl)phenyl]-1-oxo-2,3,4,5-tetrahydro-[1,4]diazepino[1,2-a]indole-9-carbonitrile] | 
23 | 252 | N#Cc1cc(-c2cccnc2)c2c(c1)cc1n2CCCNC1=O [Example 263, 1-Oxo-7-pyridin-3-yl-2,3,4,5-tetrahydro-[1,4]diazepino[1,2-a]indole-9-carbonitrile] | 
24 | 314.5 | N#Cc1cc(-c2ccc(N)nc2)c2c(c1)cc1n2CCCNC1=O [Example 264, 7-(6-Aminopyridin-3-yl)-1-oxo-2,3,4,5-tetrahydro-[1,4]diazepino[1,2-a]indole-9-carbonitrile] | 
25 | 204 | N#Cc1cc(-c2ccc(Cl)nc2)c2c(c1)cc1n2CCCNC1=O [Example 265, 7-(6-Chloropyridin-3-yl)-1-oxo-2,3,4,5-tetrahydro-[1,4]diazepino[1,2-a]indole-9-carbonitrile] | 
26 | 254 | Cc1c2n(c3c(-c4cccc(Cl)c4)cc(C#N)cc13)CCNC2=O [Example 268, 6-(3-Chlorophenyl)-10-methyl-1-oxo-3,4-dihydro-2H-pyrazino[1,2-a]indole-8-carbonitrile] | 
27 | 215 | CC(C)(C)c1ccc(-c2cc(C#N)cc3cc4n(c23)CCCNC4=O)cc1 [Example 270, 7-(4-tert-Butylphenyl)-1-oxo-2,3,4,5-tetrahydro-[1,4]diazepino[1,2-a]indole-9-carbonitrile] | 
28 | 264.5 | N#Cc1cc(-c2ccc(F)nc2)c2c(c1)cc1n2CCCNC1=O [Example 272, 7-(6-Fluoropyridin-3-yl)-1-oxo-2,3,4,5-tetrahydro-[1,4]diazepino[1,2-a]indole-9-carbonitrile] | 
29 | 277 | N#Cc1cc(-c2cncnc2)c2c(c1)cc1n2CCCNC1=O [Example 273, 1-Oxo-7-pyrimidin-5-yl-2,3,4,5-tetrahydro-[1,4]diazepino[1,2-a]indole-9-carbonitrile] | 
30 | 244 | N#Cc1cc(-c2cc(Cl)cc(Cl)c2)c2c(c1)cc1n2CCCNC1=O [Example 286, 7-(3,5-Dichlorophenyl)-1-oxo-2,3,4,5-tetrahydro-[1,4]diazepino[1,2-a]indole-9-carbonitrile] | 
31 | 347 | Cc1c2n(c3c(-c4cc(Cl)cc(Cl)c4)cc(C#N)cc13)CCNC2=O [Example 293, 6-(3,5-Dichlorophenyl)-10-methyl-1-oxo-3,4-dihydro-2H-pyrazino[1,2-a]indole-8-carbonitrile] | 
32 | 304 | Cc1c2n(c3c(-c4cncnc4)cc(C#N)cc13)CCCNC2=O [Example 299, 11-Methyl-1-oxo-7-pyrimidin-5-yl-2,3,4,5-tetrahydro-[1,4]diazepino[1,2-a]indole-9-carbonitrile] | 
